Series [1] deals with HIV-1 (NL4-3). In words: Antiviral effect in SCID mice transplanted with human PBMCs and infected with HIV-1 (NL4-3), HIV-1 p24 by ELISA. It is filed as in vivo. The settings on record: SCID mice with human PBMCs, virus NL4-3, 0.1 ml/2 mM solution/mouse intraperitoneally, 12 days after infection. As to the method:
The effect of the antiviral drug on SCID mice (immunodeficiency mice) was examined.
TMβ-1 (rat anti-mouse IL-2Rβ monoclonal antibody) was intraperitoneally administered to C.B-17 SCID mice (8 weeks-old, female, provided by CLEA Japan, Inc.) in the amount of 1 mg/mouse to exterminate NK cells. After 2 days, 1.5×10^6 human PBMCs were transplanted in the spleen together with human rIL-4 (0.2 μg/mouse). On the same day, the compound No. 86 (0.1 ml/2 mM solution/mouse) or a medium (0.1 ml) (control) was intraperitoneally administered. After 1 day, HIV-1 (NL4-3) (0.2 ml/1×10^4 TCID50/ml) was intraperitoneally administered to cause virus infection. The same amount of the compound No. 86 (or the medium) was intraperitoneally administered on each of 4 consecutive days thereafter. rIL-4 (0.2 μg) was also intraperitoneally administered 4 days after infection. 12 days after infection, blood plasma and abdominal cavity washing solutions were collected to measure the amount of HIV-1 P^24 using an ELISA kit.

Series [2] concerns ICR male mice. The series can be described thus: Acute toxicity in ICR mice, intraperitoneal administration. It is filed as in vivo. The settings on record: 3 per group, 50 mg/kg intraperitoneally, twice a day, for four days, number of dead animals after 5 days. How it is done: Acute toxicity of the antiviral drug was examined. Three groups of 7 week-old, ICR male mice, each group consisting of 3 mice, were bred for one week. The compounds prepared in the Examples, dissolved in a physiological saline solution or distilled water, were intraperitoneally administered at a dose of 50 mg/kg, twice a day, for four days. After 5 days, the number of dead animals was examined.

The test system of series [3] is HIV-1IIIB infected MT-4 cells. The series can be described thus: Anti-HIV activity: protection of HIV-1IIIB infected MT-4 cells, MTT method. The settings on record: MOI 0.01, culture for 5 days, concentration inhibiting 50% of cytotoxicity due to HIV infection. It is filed as cell-based. How it is done:
HIV-1IIIB infected MT-4 cells were added to 96-well microtiter plates (3.0×10^4/well, MOI (Multiplicity of infection): 0.01), together with test compounds at different concentrations immediately after the infection. After culture for 5 days in a carbon dioxide incubator at 37° C., the number of surviving cells was counted by MTT (tetrazolium) method (Pawels et al., J. Virol. Methods, 20, 309-321, 1988).
On the technique in general: Formazan colour is commonly taken as a measure of viable cells.

For orientation: EC50 means the concentration that produces a half-maximal response. A low value points to a more potent agent.

With `C[C@H](NC(=O)[C@H](CCCN=C(N)N)NC(=O)c1ccc(CNCc2ccccn2)cc1)c1cccc2ccccc12` [Compound No. 86, N^α-(4-(N-2-picolylaminomethyl)benzoyl)-L-arginine (1′S)-1′-(1-naphthyl)ethylamide], in series [1], the “p24 level Abdominal cavity washing solution” value is under 5 pg/mL and the “p24 level Plasma” value is under 5 pg/mL. Further, the Dead mouse in series [2] was 0/3. Also, the midpoint of the response in series [3], the EC50, lay at 43 nM.

Values taken from US7098215B2, “Nitrogenous compounds and antiviral drugs containing the same” (Kureha Chemical Industry Co., Ltd., priority 2000, dated 2006).
